Measurements taken from ChEMBL document CHEMBL1201862, “PubChem BioAssay data set” (2004).
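Cultured in 96-well plates, cells were exposed to test compound for 48 hours across five concentrations. The concentration for 50% growth inhibition is given as GI50.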 Activity calls are given as the source filed them. Rule as the data show it: active = GI50 up to about 1.1 µM and inactive = higher.

Tests used:
Assay in all cases: DTP human tumour cell line panel, 48 h
[1] = tested on: 786-0
[2] = tested on: EKVX
[3] = tested on: HCC 2998
[4] = tested on: HCT-116
[5] = tested on: HCT-15
[6] = tested on: HOP-62
[7] = tested on: HOP-92
[8] = tested on: IGROV-1
[9] = tested on: KM12
[10] = tested on: NCI-H23
[11] = tested on: OVCAR-8
[12] = tested on: SF-295
[13] = tested on: SK-MEL-28
[14] = tested on: SK-MEL-5
[15] = tested on: SK-OV-3
[16] = tested on: SNB-75
[17] = tested on: COLO 205

Measured: GI50

O=C(NCc1ccncc1)C1COc2cc(-c3cc(=O)c4ccccc4o3)ccc2O1 (stereo unspecified)
inactive: [1] > 100 µM | [2] > 100 µM | [3] > 100 µM | [4] > 100 µM | [6] > 100 µM | [7] > 100 µM | [8] > 100 µM | [9] > 100 µM | [10] > 100 µM | [11] > 100 µM | [12] > 100 µM | [13] > 100 µM | [14] > 100 µM | [15] > 100 µM | [16] 38.1 µM
> 100 µM: [5]

C[C@]12CC[C@@H]3c4ccccc4CC[C@H]3[C@@H]1CC[C@@H]2O
inactive: [1] > 100 µM | [17] 73.8 µM | [2] 80.5 µM | [3] 61.7 µM | [4] > 100 µM | [6] > 100 µM | [8] > 100 µM | [9] 68.7 µM | [10] > 100 µM | [11] > 100 µM | [12] > 100 µM | [13] > 100 µM | [15] > 100 µM | [16] 54.7 µM
50.2 µM: [5]

N/C(=N\O)N/N=C\c1c2ccccc2c(Cl)c2ccccc12
5.82 µM: [5]
inactive: [1] 12.6 µM | [17] 3.67 µM | [2] 3.03 µM | [3] 3.66 µM | [4] 3.66 µM | [6] 10.5 µM | [7] 3.16 µM | [8] 3.38 µM | [9] 4.85 µM | [10] 5.04 µM | [11] 4.08 µM | [12] 2.75 µM | [13] 13.5 µM | [14] 5 µM | [15] 2.57 µM | [16] 12.7 µM

CC(=O)NN1C(=O)C(Cc2ccccc2)c2ccccc21 (stereo unspecified)
inactive: [1] > 100 µM | [17] > 100 µM | [2] > 100 µM | [3] > 100 µM | [4] > 100 µM | [6] > 100 µM | [7] > 100 µM | [8] > 100 µM | [9] > 100 µM | [10] > 100 µM | [11] > 100 µM | [12] > 100 µM | [13] > 100 µM | [14] > 100 µM | [15] > 100 µM | [16] > 100 µM
> 100 µM: [5]

CCOC(=O)C1CCCCN1C(=O)OCc1ccccc1 (stereo unspecified)
> 100 µM: [5]
inactive: [1] > 100 µM | [2] > 100 µM | [4] > 100 µM | [6] > 100 µM | [9] > 100 µM | [10] 78.3 µM | [11] > 100 µM | [12] > 100 µM | [13] > 100 µM | [14] > 100 µM | [15] > 100 µM | [16] > 100 µM

CC(O)c1ccc(C(O)/C(=N\NC(=O)c2ccncc2)c2nc3ccc([N+](=O)[O-])cc3nc2O)cc1 (stereo unspecified)
34.8 µM: [5]
inactive: [1] > 100 µM | [17] > 100 µM | [3] 75.2 µM | [4] > 100 µM | [6] > 100 µM | [7] > 100 µM | [8] > 100 µM | [9] 49 µM | [10] > 100 µM | [11] > 100 µM | [12] > 100 µM | [13] > 100 µM | [14] > 100 µM | [15] > 100 µM | [16] > 100 µM

CCSc1nc(-c2ccc(OC)cc2)c(C#N)c(=O)n1C1OCC(OC(C)=O)C(OC(C)=O)C1OC(C)=O (stereo unspecified)
inactive: [1] > 100 µM | [17] > 100 µM | [2] > 100 µM | [3] > 100 µM | [4] > 100 µM | [6] > 100 µM | [7] > 100 µM | [8] 77.8 µM | [9] > 100 µM | [10] 94.6 µM | [12] > 100 µM | [13] > 100 µM | [14] 93.3 µM | [15] > 100 µM | [16] 65.6 µM
> 100 µM: [5]

N#CC(/C(=N\NC(=O)c1ccncc1)C(=O)Nc1ccc([N+](=O)[O-])cc1[N+](=O)[O-])c1nc(-c2ccc(Br)cc2)cs1 (stereo unspecified)
> 100 µM: [5]
inactive: [1] > 100 µM | [17] > 100 µM | [2] > 100 µM | [3] > 100 µM | [4] > 100 µM | [6] > 100 µM | [8] > 100 µM | [9] > 100 µM | [11] > 100 µM | [12] > 100 µM | [13] > 100 µM | [14] > 100 µM | [15] > 100 µM | [16] > 100 µM

CC1(C2COC(=O)C2)SCCCS1 (stereo unspecified)
> 100 µM: [5]
inactive: [1] > 100 µM | [17] > 100 µM | [2] > 100 µM | [3] > 100 µM | [4] > 100 µM | [6] > 100 µM | [7] > 100 µM | [8] > 100 µM | [9] 98.4 µM | [10] > 100 µM | [11] > 100 µM | [12] > 100 µM | [13] > 100 µM | [14] > 100 µM | [15] 53.8 µM | [16] > 100 µM

COc1ccc(OC)c(NC(=O)C(=O)CC(=O)c2sc(-n3nc(-c4ccccc4)cc3-c3ccccc3)nc2C)c1
> 100 µM: [5]
inactive: [1] > 100 µM | [17] > 100 µM | [3] > 100 µM | [4] > 100 µM | [6] > 100 µM | [8] > 100 µM | [9] > 100 µM | [10] > 100 µM | [11] > 100 µM | [12] > 100 µM | [15] > 100 µM | [16] > 100 µM

CCC1CN2CCc3cc(OC)c(OC)cc3C2CC1CC1c2cc(OC)c(OC)cc2CCN1C(=O)C1CCCN1C(=O)OCc1ccccc1 (stereo unspecified)
16.2 µM: [5]
inactive: [1] 19.4 µM | [2] 22.7 µM | [3] 16.3 µM | [4] 13.1 µM | [6] 16.2 µM | [7] 10.2 µM | [8] 15.9 µM | [9] 16.3 µM | [10] 16.3 µM | [11] 17.1 µM | [12] 16.5 µM | [13] 16.9 µM | [14] 15.5 µM | [16] 14.4 µM

N#C/C(=C\c1ccccc1F)C(=O)c1ccccc1
inactive: [1] > 100 µM | [17] > 100 µM | [2] > 100 µM | [3] > 100 µM | [4] > 100 µM | [6] > 100 µM | [7] > 100 µM | [8] > 100 µM | [9] > 100 µM | [10] > 100 µM | [11] > 100 µM | [12] > 100 µM | [13] > 100 µM | [14] > 100 µM | [15] > 100 µM
> 100 µM: [5]

CCN(CC)C(=O)c1c(Cl)cc(N(CC)CC)oc1=O
> 100 µM: [5]
inactive: [1] > 100 µM | [17] > 100 µM | [2] > 100 µM | [3] > 100 µM | [4] > 100 µM | [6] > 100 µM | [7] > 100 µM | [8] > 100 µM | [9] > 100 µM | [10] > 100 µM | [11] > 100 µM | [12] > 100 µM | [13] > 100 µM | [15] > 100 µM | [16] > 100 µM

C#CCOCn1cnc2c(Cl)ncnc21
inactive: [1] > 100 µM | [17] > 100 µM | [2] > 100 µM | [3] > 100 µM | [4] > 100 µM | [6] > 100 µM | [7] > 100 µM | [8] > 100 µM | [9] > 100 µM | [10] > 100 µM | [11] > 100 µM | [12] > 100 µM | [13] > 100 µM | [14] > 100 µM | [15] > 100 µM | [16] > 100 µM

COC1(OC)CC2C(=O)N(Cc3ccccc3)C1C=C2S(=O)(=O)c1ccccc1 (stereo unspecified)
inactive: [1] 19.7 µM | [17] 10.2 µM | [2] 15.6 µM | [3] 19.5 µM | [4] 13.8 µM | [6] 38.8 µM | [7] 24.1 µM | [8] 32.9 µM | [9] 17.4 µM | [10] 18 µM | [11] 17.9 µM | [12] 28.5 µM | [13] 17.5 µM | [14] 13.8 µM | [15] 47.5 µM | [16] 28.8 µM

CC(=O)Nc1ccccc1-c1nc2ccccc2nc1-c1ccccc1
inactive: [1] > 100 µM | [17] > 100 µM | [2] > 100 µM | [3] > 100 µM | [4] > 100 µM | [6] > 100 µM | [7] > 100 µM | [8] > 100 µM | [9] > 100 µM | [10] > 100 µM | [11] > 100 µM | [12] > 100 µM | [13] > 100 µM | [15] > 100 µM | [16] 69.7 µM
> 100 µM: [5]

CC(C)C1CC2C(=O)N(c3ccccc3)C(=O)C2c2[nH]c3ccccc3c21 (stereo unspecified)
14.6 µM: [5]
inactive: [1] 21.1 µM | [2] 61.7 µM | [3] > 100 µM | [4] 4.13 µM | [6] 29.2 µM | [8] 34.5 µM | [9] 9.91 µM | [10] 19.5 µM | [11] 7.24 µM | [12] 6.9 µM | [13] 23.4 µM | [14] 73.8 µM | [15] 20.5 µM | [16] 6.98 µM

O=C1CCCCC1CN1CCCC1 (stereo unspecified)
inactive: [1] > 100 µM | [17] > 100 µM | [2] > 100 µM | [3] > 100 µM | [4] > 100 µM | [6] > 100 µM | [8] > 100 µM | [9] > 100 µM | [10] > 100 µM | [11] > 100 µM | [12] > 100 µM | [13] > 100 µM | [14] > 100 µM | [15] > 100 µM | [16] > 100 µM
> 100 µM: [5]
